Results from PubChem BioAssay AID1963845 (Molecular Pharmacology Branch, DTP, NCI, 2024).
pIC50: −log10 of the molar value.

Tested on: 429239-143-T-J1-PDC complex spheroid viability
Assay: Anticancer human tumor 429239-143-T-J1-PDC patient-derived small cell lung carcinoma cell line growth inhibition [POLQ]
Conditions: for pIC50: curve of first compound; for viability, T/C: stronger effect = lower value; active = viability on the fitted dose curve at most 10% of control; inactive = the rest
Method: Multicellular complex tumor spheroid response to Polymerase (POL) inhibitors (novobiocin, ART-558, RP6685) in combination with a variety of drugs and investigational agents in selected tumor cell lines
The POL inhibitors (novobiocin, ART-558, and RP6685) were evaluated both individually and in combination with standard of care and investigational anticancer small molecules within a complex spheroid model of solid tumors. . Complex spheroids include a stromal component modeled by human endothelial cells (HUVEC) and fibroblasts modeled by human mesenchymal stem cells (MSCs). The concentration ranges selected for each drug and investigational agent were based upon clinically achievable concentrations if the clinical Cmax of the agent was known.
Compounds. The drugs and investigational agents: novobiocin (NSC847541), ART-558 (NSC835418), RP-6685 (NSC848927), peposertib (NSC802822), ceralasertib (NSC780249), elimusertib (NSC800525), camonsertib (NSC841442), AZD-1390 (NSC803789), olaparib (NSC753686), talazoparib (NSC767125), rucaparib (NSC756644), sotorasib (NSC818433), MRTX-1133 (NSC836407), SN-38 (NSC673596), topotecan (NSC609699), epotoside (NSC141540), doxorubicin (NSC123127), gemcitabine (NSC613327), 5-fluorouracil (NSC19893), paclitaxel (NSC125973), vemurafenib (NSC761431), MSA-2 (NSC828583), SN-011 (NSC837082), adavosertib (NSC754352), prexasertib (NSC758257), carboplatin (NSC241240) and oxaliplatin (NSC266046), were obtained from the National Cancer Institute (NCI) Developmental Therapeutics Program Chemical Repository (21). The FDA-approved anticancer drug set is available from the Developmental Therapeutics Program at https://dtp.cancer.gov/organization/dscb/obtaining/. […] The stock solutions were prepared in dimethyl sulfoxide (DMSO, Sigma-Aldrich, St. Louis, MO, cat. D2650), except for the platinum compounds which were prepared in saline (Quality Biological, Gaithersburg, MD, cat. 114-055-101), at 800-fold the tested concentration and stored at -70 degrees C prior to their use. All drugs and investigational agents were tested over a range starting from a high concentration at or near the clinical Cmax and decreasing in half-log increments. If the clinical Cmax for an agent had not been determined, the highest concentration tested was 10 microM, except for SN-38, which was tested at a high concentration of 1 microM.
Cell Culture. All cells were maintained in an incubator at 37 degrees C and 5% CO2 with 95% humidity. The PDC lines were cultured according to standard operating procedures established by the NCI PDMR (https://pdmr.cancer.gov). Table 3 of the manuscript, lists the cell lines along with the number of the three cell types plated to form the mct-spheroids and media for tumor cell growth. After thawing, all PDC lines, except 997537-175-T-J1-PDC and 415267-285-R-J2-PDC, were cultured in Matrigel-coated flasks prepared with a working solution of 1X Ham's F-12 nutrient mix, without supplementation (Thermo Fisher Scientific, cat. 11765054), 100 U/mL penicillin-streptomycin (Thermo Fisher Scientific, cat. 15140122), and 2.5% Matrigel (Corning Inc., Corning, NY, cat. 354248) for the first three passages. The two PDC lines 997537-175-T-J1-PDC and 415267-285-R-J2-PDC were cultured on uncoated flasks. The 857933-349-R-J2-PDC line was cultured in 6C/Colon 1B media containing advanced DMEM/F-12 (Thermo Fisher Scientific, cat. 12634028), 10 mM HEPES (Thermo Fisher Scientific, cat. 15630080), 1X GlutaMAX supplement (Thermo Fisher Scientific, cat. 35050061), 0.1 mg/mL primocin (InvivoGen, San Diego, CA, cat. ant-pm-2), 10% defined fetal bovine serum, heat inactivated (HyClone Laboratories Inc., Logan, UT, cat. SH30070.03HI), 50% L-WRN conditioned media (ATCC, cat. CRL-3276), 1.25 mM N-Acetyl-L-cysteine (Sigma-Aldrich, cat. A9165), 10 mM nicotinamide (Sigma-Aldrich, cat. N0636), 1X B-27 supplement (Thermo Fisher Scientific, cat. 17504044), 1X N-2 supplement (Thermo Fisher Scientific, cat. […]

[1] = second compound 0.0316 µM, first compound 0.0316 µM
[2] = second compound 0.0316 µM, first compound 0.1 µM
[3] = second compound 0.0316 µM, first compound 0.316 µM
[4] = second compound 0.0316 µM, first compound 1 µM
[5] = second compound 0.0316 µM, first compound 3.16 µM
[6] = second compound 0.0316 µM, first compound 10 µM
[7] = second compound 0.1 µM, first compound 0.0316 µM
[8] = second compound 0.1 µM, first compound 0.1 µM
[9] = second compound 0.1 µM, first compound 0.316 µM
[10] = second compound 0.1 µM, first compound 1 µM
[11] = second compound 0.1 µM, first compound 3.16 µM
[12] = second compound 0.1 µM, first compound 10 µM
[13] = second compound 0.316 µM, first compound 0.0316 µM
[14] = second compound 0.316 µM, first compound 0.1 µM
[15] = second compound 0.316 µM, first compound 0.316 µM
[16] = second compound 0.316 µM, first compound 1 µM
[17] = second compound 0.316 µM, first compound 3.16 µM
[18] = second compound 0.316 µM, first compound 10 µM
[19] = second compound 1 µM, first compound 0.0316 µM
[20] = second compound 1 µM, first compound 0.1 µM
[21] = second compound 1 µM, first compound 0.316 µM
[22] = second compound 1 µM, first compound 1 µM
[23] = second compound 1 µM, first compound 3.16 µM
[24] = second compound 1 µM, first compound 10 µM
[25] = second compound 3.16 µM, first compound 0.0316 µM
[26] = second compound 3.16 µM, first compound 0.1 µM
[27] = second compound 3.16 µM, first compound 0.316 µM
[28] = second compound 3.16 µM, first compound 1 µM
[29] = second compound 3.16 µM, first compound 3.16 µM
[30] = second compound 3.16 µM, first compound 10 µM
[31] = second compound 10 µM, first compound 0.0316 µM
[32] = second compound 10 µM, first compound 0.1 µM
[33] = second compound 10 µM, first compound 0.316 µM
[34] = second compound 10 µM, first compound 1 µM
[35] = second compound 10 µM, first compound 3.16 µM
[36] = second compound 10 µM, first compound 10 µM
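Note: luminescence signal used as surrogate measure of viable cells; spheroids exposed to compounds for seven days before readout.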
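Throughout, for viability, T/C: 100% = DMSO vehicle control viability as luminescence relative to vehicle.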

CCCS(=O)(=O)Nc1ccc(F)c(C(=O)c2c[nH]c3ncc(-c4ccc(Cl)cc4)cc23)c1F + Cc1cccc(N(C)C(=O)C2C(O)CCN2c2nc(C)cc(C(F)(F)F)c2C#N)c1
inactive: viability, T/C [1] 91.3% | viability, T/C [2] 106% | viability, T/C [3] 88.6% | viability, T/C [4] 93.4% | viability, T/C [5] 94% | viability, T/C [6] 81.7% | viability, T/C [7] 92.2% | viability, T/C [8] 89.9% | viability, T/C [9] 89.4% | viability, T/C [10] 97.2% | viability, T/C [11] 93.6% | viability, T/C [12] 82.8% | viability, T/C [13] 99.5% | viability, T/C [14] 92.8% | viability, T/C [15] 96.9% | viability, T/C [16] 94.1% | viability, T/C [17] 87.5% | viability, T/C [18] 79% | viability, T/C [19] 103% | viability, T/C [20] 87.7% | viability, T/C [21] 92.3% | viability, T/C [22] 91% | viability, T/C [23] 90.3% | viability, T/C [24] 77.5% | viability, T/C [25] 98.8% | viability, T/C [26] 96.9% | viability, T/C [27] 97.4% | viability, T/C [28] 94.2% | viability, T/C [29] 105% | viability, T/C [30] 79.5% | viability, T/C [31] 100% | viability, T/C [32] 105% | viability, T/C [33] 85.2% | viability, T/C [34] 93.5% | viability, T/C [35] 98.8% | viability, T/C [36] 81.9%
< 5.00: pIC50 (second compound 0.0316 µM) | pIC50 (second compound 0.1 µM) | pIC50 (second compound 0.316 µM) | pIC50 (second compound 1 µM) | pIC50 (second compound 3.16 µM) | pIC50 (second compound 10 µM)

Nc1ccn(C2OC(CO)C(O)C2(F)F)c(=O)n1 (centres undefined) + Cc1cccc(N(C)C(=O)C2C(O)CCN2c2nc(C)cc(C(F)(F)F)c2C#N)c1
> 7.50: pIC50 (second compound 0.0316 µM) | pIC50 (second compound 0.1 µM) | pIC50 (second compound 0.316 µM) | pIC50 (second compound 1 µM) | pIC50 (second compound 3.16 µM) | pIC50 (second compound 10 µM)
inactive: viability, T/C [1] 19.2% | viability, T/C [2] 20.4% | viability, T/C [3] 17.1% | viability, T/C [4] 18% | viability, T/C [5] 18.3% | viability, T/C [6] 17.3% | viability, T/C [7] 20.3% | viability, T/C [8] 20% | viability, T/C [9] 15.1% | viability, T/C [10] 20.4% | viability, T/C [11] 18% | viability, T/C [12] 16.5% | viability, T/C [13] 18.5% | viability, T/C [14] 16.1% | viability, T/C [15] 18.6% | viability, T/C [16] 20.8% | viability, T/C [17] 19.3% | viability, T/C [18] 17.1% | viability, T/C [19] 21.8% | viability, T/C [20] 16.5% | viability, T/C [21] 18.2% | viability, T/C [22] 16.6% | viability, T/C [23] 17.2% | viability, T/C [24] 17.5% | viability, T/C [25] 25.2% | viability, T/C [26] 17.2% | viability, T/C [27] 21.9% | viability, T/C [28] 18.5% | viability, T/C [29] 15.5% | viability, T/C [30] 18.3% | viability, T/C [31] 24.9% | viability, T/C [32] 15.6% | viability, T/C [33] 20.8% | viability, T/C [34] 17.9% | viability, T/C [35] 20.2% | viability, T/C [36] 19.4%
